# Results taken from patent US20030003508A1 (priority 1999, published 2003).
# Test system: R. pulicis
# Format: cell-based, Rickettsia pulicis
smiles,measurement,value
CO[C@H]1/C=C/O[C@@]2(C)Oc3c(C)c(O)c4c(O)c(c(/C=N/N5CCN(C)CC5)c(O)c4c3C2=O)NC(=O)/C(C)=C\C=C\[C@H](C)[C@H](O)[C@@H](C)[C@@H](O)[C@@H](C)[C@H](OC(C)=O)[C@@H]1C [Rifampin],inhibitory at single concentration tested,inhibitory
